Data from patent publication US20120302569A1, “PHENYL-THIAZOLYL INHIBITORS OF PRO-MATRIX METALLOPROTEINASE ACTIVATION” (priority 2011, published 2012).
Structures can show the parent of a compound that is named as a salt.

What was measured:
[1] = molecular target: T1, proMMP9(20-445;ΔFnII) (SEQ ID NO:6) (Homo sapiens, UniProt P14780, DEL216-390); assay: ThermoFluor with proMMP9(20-445;ΔFnII); settings: read-out: proMMP9(20-445; ΔFnII) (SEQ ID NO: 6) binding
T1 construct: start methionine (N); made in house; host or cells: E. coli BL21(DE3) RIL
T1 sequence (P14780 with tags, fused parts or gaps DEL216-390): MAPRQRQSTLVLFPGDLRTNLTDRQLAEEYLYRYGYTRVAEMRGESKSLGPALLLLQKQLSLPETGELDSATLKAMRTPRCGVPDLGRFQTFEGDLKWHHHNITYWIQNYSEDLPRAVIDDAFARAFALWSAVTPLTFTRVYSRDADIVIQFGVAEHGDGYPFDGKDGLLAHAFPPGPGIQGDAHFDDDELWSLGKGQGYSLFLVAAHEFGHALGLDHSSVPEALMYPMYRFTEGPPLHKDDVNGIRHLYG
Experimental: (§1) The ThermoFluor® (TF) assay is a 384-well plate-based binding assay that measures thermal stability of proteins (Biomol Screen 2001, 6, 429-40; Biochemistry 2005, 44, 5258-66). The experiments were carried out using instruments available from Johnson & Johnson Pharmaceutical Research & Development, LLC. TF dye used in all experiments was […] (1,8-ANS) (Invitrogen: A-47).
(§2) Compounds were arranged in a pre-dispensed plate (Greiner Bio-one: 781280), wherein compounds were serially diluted in 100% DMSO across 11 columns within a series. Columns 12 and 24 were used as DMSO reference and contained no compound. For multiple compound concentration-response experiments, the compound aliquots (50 nL) were robotically predispensed directly into black 384-well polypropylene PCR microplates (Abgene: TF-0384/k) using a Cartesian Hummingbird liquid handler (DigiLab, Holliston, Mass.). Following compound dispense, protein and dye solutions were added to achieve the final assay volume of 3 μL. The assay solutions were overlayed with 1 μL of silicone oil (Fluka, type DC 200: 85411) to prevent evaporation.
(§3) Assay plates were robotically loaded onto a thermostatically controlled PCR-type thermal block and then heated from 40 to 90° C. at a ramp-rate of 1° C./min for all experiments. Fluorescence was measured by continuous illumination with UV light (Hamamatsu LC6) supplied via fiber optics and filtered through a band-pass filter (380-400 nm; >6 OD cutoff). Fluorescence emission of the entire 384-well plate was detected by measuring light intensity using a CCD camera (Sensys, Roper Scientific) filtered to detect 500±25 nm, resulting in simultaneous and independent readings of all 384 wells. A single image with 20-sec exposure time was collected at each temperature, and the sum of the pixel intensity in a given area of the assay plate was recorded vs temperature and fit to standard equations to yield the Tm (J Biomol Screen 2001, 6, 429-40).
(§4) Thermodynamic parameters necessary for fitting compound binding for each proMMP were estimated by differential scanning calorimetry (DSC) and from ThermoFluor® data. The heat capacity of unfolding for each protein was estimated from the molecular weight and from ThermoFluor® dosing data.
ThermoFluor® with proMMP9(20-445;ΔFnII) (SEQ ID NO:6)
The protein sample preparations included a desalting buffer exchange step via a PD-10 gravity column (GE Healthcare). The desalting buffer exchange was performed prior to diluting the protein to the final assay concentration of 2.8 μM proMMP9(20-445;ΔFnII) (SEQ ID NO:6). The concentration of proMMP9(20-445;ΔFnII) (SEQ ID NO:6) was determined spectrophotometrically based on a calculated extinction coefficient of ε280=39880 M^−1cm^−1, a calculated molecular weight of 28.2 kDa, and calculated pI of 5.5. ThermoFluor® reference conditions were define as follows: 80 μg/mL (2.8 μM) proMMP9(20-445;ΔFnII) (SEQ ID NO:6), 50 μM 1,8-ANS, pH 7.0 Buffer (50 mM HEPES pH 7.0, 100 mM NaCl, 0.001% Tween-20, 2.5 mM MgCl2, 300 μM CaCl2). The thermodynamic parameters for proMMP9(20-445;ΔFnII) (SEQ ID NO:6) are as follows: Tm (° C.)=72 (+/−0.1), ΔUH(Tm) (cal mol^−1)=160000(+/−5000), ΔUS(Tm) (cal mol^−1 K^−1)=434, ΔUCp (cal mol^−1 K^−1)=2400.

[2] = molecular target: T2, proMMP9(67-444;ΔFnII) (SEQ ID NO:5) (Homo sapiens, UniProt P14780, DEL216-390); assay: ThermoFluor with proMMP9(67-444;ΔFnII); settings: read-out: proMMP9(67-444; ΔFnII) (SEQ ID NO: 5) binding
T2 construct: start methionine (N); made in house; host or cells: E. coli BL21(DE3) RIL
T2 sequence (P14780 with tags, fused parts or gaps DEL216-390): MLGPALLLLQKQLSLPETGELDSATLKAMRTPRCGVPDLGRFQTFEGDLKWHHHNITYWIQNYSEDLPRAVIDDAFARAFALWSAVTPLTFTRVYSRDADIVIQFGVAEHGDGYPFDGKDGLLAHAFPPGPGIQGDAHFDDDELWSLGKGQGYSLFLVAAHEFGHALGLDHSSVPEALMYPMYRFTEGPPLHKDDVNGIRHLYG
Experimental: as §1, §2, §3, §4
ThermoFluor® with proMMP9(67-444;ΔFnII) (SEQ ID NO:5)
The protein sample preparations had to include a desalting buffer exchange step via a PD-10 gravity column (GE Healthcare). The desalting buffer exchange was performed prior to diluting the protein to the final assay concentration of 3.5 μM proMMP9(67-444;ΔFnII) (SEQ ID NO:5). The concentration of proMMP9(67-444;ΔFnII) (SEQ ID NO:5) was determined spectrophotometrically based on a calculated extinction coefficient of ε280=33900 M^−1cm^−1, a calculated molecular weight of 22.6 kDa, and calculated pI of 5.20. ThermoFluor® reference conditions were defined as follows: 80 μg/mL (3.5 μM) proMMP9(67-444;ΔFnII) (SEQ ID NO:5), 50 μM 1,8-ANS, pH 7.0 Buffer (50 mM HEPES pH 7.0, 100 mM NaCl, 0.001% Tween-20, 2.5 mM MgCl2, 300 μM CaCl2). The thermodynamic parameters for proMMP9(67-444;ΔFnII) (SEQ ID NO:5) are as follows: Tm (° C.)=63 (+/−0.1), ΔUH(Tm) (cal mol^−1)=105000(+/−5000), ΔUS(Tm) (cal mol^−1 K^−1)=450, […].

[3] = molecular target: T3, full-length proMMP9(1-707) (SEQ ID NO:1) (Homo sapiens, UniProt P14780, R574P); assay: proMMP9/MMP3 P126 Activation Assay; assay type: biochemical; settings: proMMP9(1-707) from HEK293 cells activated by catalytic MMP3
T3 construct: made in house; host or cells: HEK293 (proMMP9, secreted); E. coli (MMP3)
Experimental: proMMP9/MMP3 P126 Activation Assay
The reaction volume was 50 μL. […] Reactivity of residual MMP3 towards P-126 substrate was minimal under these conditions.

T3 sequence (P14780 20-707 R574P): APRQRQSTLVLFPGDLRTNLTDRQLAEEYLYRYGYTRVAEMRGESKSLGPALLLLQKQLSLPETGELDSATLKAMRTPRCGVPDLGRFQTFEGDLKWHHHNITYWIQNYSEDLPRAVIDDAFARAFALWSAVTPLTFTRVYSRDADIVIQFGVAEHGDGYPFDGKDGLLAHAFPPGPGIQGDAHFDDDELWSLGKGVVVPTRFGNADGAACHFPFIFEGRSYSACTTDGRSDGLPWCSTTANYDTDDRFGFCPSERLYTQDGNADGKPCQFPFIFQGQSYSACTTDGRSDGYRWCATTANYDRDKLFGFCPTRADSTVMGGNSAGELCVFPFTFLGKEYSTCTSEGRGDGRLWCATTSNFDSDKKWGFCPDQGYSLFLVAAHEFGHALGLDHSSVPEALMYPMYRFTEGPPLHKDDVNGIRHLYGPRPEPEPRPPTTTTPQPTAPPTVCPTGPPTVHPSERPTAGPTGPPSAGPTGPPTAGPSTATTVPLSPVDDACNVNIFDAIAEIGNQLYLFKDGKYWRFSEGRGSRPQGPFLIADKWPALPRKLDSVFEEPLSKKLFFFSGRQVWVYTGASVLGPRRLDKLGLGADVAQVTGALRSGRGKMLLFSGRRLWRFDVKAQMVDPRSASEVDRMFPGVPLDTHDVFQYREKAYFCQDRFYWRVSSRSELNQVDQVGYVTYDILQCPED

| Structure (SMILES) | Kd [1] | Kd [2] | IC50 [3] |
| --- | --- | --- | --- |
| CC(C)Oc1ccc(C(N)=O)cc1Nc1nc(-c2ccc(OCCN3CCC(F)(F)CC3)cc2)cs1 [Example 32, 3-((4-(4-(2-(4,4-Difluoropiperidin-1-yl)ethoxy)phenyl)thiazol-2-yl)amino)-4-isopropoxybenzamide.TFA] | 100 nM | 390 nM | 430 nM |
| NS(=O)(=O)c1ccc(OC(F)(F)F)c(Nc2nc(-c3ccc(OCCN4CCC(F)(F)CC4)cc3)cs2)c1 [Example 33, 3-((4-(4-(2-(4,4-difluoropiperidin-1-yl)ethoxy)phenyl)thiazol-2-yl)amino)-4-(trifluoromethoxy)benzenesulfonamide.TFA] | 1300 nM | 650 nM | 16000 nM |
| COc1ccncc1Nc1nc(-c2ccc(OCCN3CCC(F)CC3)cc2)cs1 [Example 35, 4-(4-(2-(4-fluoropiperidin-1-yl)ethoxy)phenyl)-N-(4-methoxypyridin-3-yl)thiazol-2-amine.TFA] | 4300 nM | 1000 nM | 780 nM |
| CCOc1ccncc1Nc1nc(-c2ccc(OCCN3CCC(F)CC3)cc2)cs1 [Example 36, N-(4-ethoxypyridin-3-yl)-4-(4-(2-(4-fluoropiperidin-1-yl)ethoxy)phenyl)thiazol-2-amine.TFA] | 1800 nM | 96 nM | 92 nM |
| NC(=O)c1ccc(OC(F)(F)F)c(Nc2nc(-c3ccc(OCCN4CCC(F)CC4)cc3)cs2)c1 [Example 37, 3-((4-(4-(2-(4-fluoropiperidin-1-yl)ethoxy)phenyl)thiazol-2-yl)amino)-4-(trifluoromethoxy)benzamide.TFA] | 74 nM | 270 nM | 360 nM |
| COc1cc(C)c(C(N)=O)cc1Nc1nc(-c2ccc(OCCN3CCC(F)CC3)cc2)cs1 [Example 39, 5-((4-(4-(2-(4-fluoropiperidin-1-yl)ethoxy)phenyl)thiazol-2-yl)amino)-4-methoxy-2-methylbenzamide.TFA] | 550 nM | 640 nM | 720 nM |
| CC(C)Oc1ccc(C(N)=O)cc1Nc1nc(-c2ccc(CN3CC[C@@H](F)C3)cc2)cs1 [Example 52, (R)-3-((4-(4-((3-fluoropyrrolidin-1-yl)methyl)phenyl)thiazol-2-yl)amino)-4-isopropoxybenzamide.TFA] | 27 nM | 87 nM | 110 nM |
| CC(C)Oc1ccc(C(N)=O)cc1Nc1nc(-c2ccc(CN3CCC(F)CC3)cc2)cs1 [Example 54, 3-((4-(4-((4-fluoropiperidin-1-yl)methyl)phenyl)thiazol-2-yl)amino)-4-isopropoxybenzamide.TFA] | 31 nM | 110 nM | 95 nM |
| CC(C)Oc1ccc(C(N)=O)cc1Nc1nc(-c2ccc(CN3CCOCC3)cc2)cs1 [Example 58, 4-isopropoxy-3-((4-(4-(morpholinomethyl)phenyl)thiazol-2-yl)amino)benzamide.TFA] | 56 nM | 210 nM | 250 nM |

Continued, values first:

| Kd [1] | Kd [2] | IC50 [3] | Structure (SMILES) |
| --- | --- | --- | --- |
| 75 nM | 150 nM | 1100 nM | CC(C)Oc1ccc(S(N)(=O)=O)cc1Nc1nc(-c2ccc(OCCN3CCC(F)(F)CC3)cc2)cs1 [Example 31, 3-((4-(4-(2-(4,4-Difluoropiperidin-1-yl)ethoxy)phenyl)thiazol-2-yl)amino)-4-isopropoxybenzenesulfonamide.TFA] |
| 21 nM | 28 nM | 120 nM | CC(C)Oc1ccc(S(N)(=O)=O)cc1Nc1nc(-c2ccc(OCCN3CCC(F)CC3)cc2)cs1 [Example 34, 3-((4-(4-(2-(4-fluoropiperidin-1-yl)ethoxy)phenyl)thiazol-2-yl)amino)-4-isopropoxybenzenesulfonamide.TFA] |
| 2600 nM | 3000 nM | > 20000 nM | NS(=O)(=O)c1cc2c(c(Nc3nc(-c4ccc(OCCN5CCC(F)CC5)cc4)cs3)c1)OCC2 [Example 38, 7-((4-(4-(2-(4-fluoropiperidin-1-yl)ethoxy)phenyl)thiazol-2-yl)amino)-2,3-dihydrobenzofuran-5-sulfonamide.TFA] |
| 190 nM | 660 nM | 1300 nM | CC(C)Cc1ccc(C(N)=O)cc1Nc1nc(-c2ccc(OCCN3CCC(F)CC3)cc2)cs1 [Example 40, 3-((4-(4-(2-(4-fluoropiperidin-1-yl)ethoxy)phenyl)thiazol-2-yl)amino)-4-isobutylbenzamide.TFA] |
| 330 nM | 180 nM | 620 nM | NS(=O)(=O)c1ccc(OC(F)(F)F)c(Nc2nc(-c3ccc(OCCN4CCC(F)CC4)cc3)cs2)c1 [Example 41, 3-((4-(4-(2-(4-fluoropiperidin-1-yl)ethoxy)phenyl)thiazol-2-yl)amino)-4-(trifluoromethoxy)benzenesulfonamide.TFA] |
| 36 nM | 79 nM | 110 nM | CC(C)Oc1ccc(S(N)(=O)=O)cc1Nc1nc(-c2ccc(CN3CCN(C4CC4)CC3)cc2)cs1 [Example 51, 3-((4-(4-((4-cyclopropylpiperazin-1-yl)methyl)phenyl)thiazol-2-yl)amino)-4-isopropoxybenzenesulfonamide.TFA] |
| 30 nM | 53 nM | 140 nM | CC(C)Oc1ccc(S(N)(=O)=O)cc1Nc1nc(-c2ccc(CN3CCC(F)CC3)cc2)cs1 [Example 55, 3-((4-(4-((4-fluoropiperidin-1-yl)methyl)phenyl)thiazol-2-yl)amino)-4-isopropoxybenzenesulfonamide.TFA] |
